From patent US8138159B2, “Composition for inhibiting function of human Flt3” (Takara Bio Inc., priority 2003, dated 2012)

What was measured:
Assay type in all cases: cell-based, human
[1] = system: HL60 cells (WT-low expressing); assay: cell growth activity, Premix WST1 (Example 2)
Protocol: (§1) The cells placed in a 96-well plate at a density of 2×10^4 cells/well were cultured in an RPMI medium (containing 10% by volume FBS). The cells were transfected with each of the synthesized (10 nM each) siRNAs, and after 20 hours, the cell growth activity was determined with Premix WST1 reagent (trade name, manufactured by TAKARA BIO INC.). Relative growth ability (%) compared with the growth ability of the control (cells subjected to transfection without adding an siRNA) was determined. Each experiment was carried out with n=3, and the mean was determined.

[2] = system: MV4-11 cells (ITD mutation-highly expressing); assay: cell growth activity, Premix WST1 (Example 2)
Protocol: as §1

[3] = system: EoL1 cells (WT-highly expressing); assay: cell growth activity, Premix WST1 (Example 2)
Protocol: as §1

[4] = system: Flt3 mRNA; assay: Flt3 mRNA interference by synthesized siRNA, real-time RT-PCR (Example 1); details: for inhibition percentage (%) of the relative mRNA expression level (Flt3 mRNA/GAPDH mRNA): siRNA 200 pmol, Oligofectamin, after 24 hours, vs cells transfected without siRNA
Protocol: Each kind of cell selected from HL-60 cells [Flt3 WT (wild-type) low expressing cells; ATCC CCL-240], EoL-1 cells [Flt3 WT (wild-type) highly expressing cells; ECACC 94042252] and MV4-11 cells [Flt3/ITD highly expressing cells; ATCC CRL-9591] was cultured at 37° C. in an RPMI 1640 medium (manufactured by TAKARA BIO INC.) supplemented with 10% by volume fetal bovine serum (FBS) in the presence of 5% by volume CO2.
Then, the cells (2×10^5 cells/nil) were pre-cultured for 24 hours in a 6-well plate, then recovered, and suspended so as to give a density of 1.5×10^5 cells/ml in Opti-MEM (trade name, manufactured by Invitrogen), and the synthesized siRNA was added to the resulting suspension so as to give a final concentration of 200 pmol. Transfection was carried out using Oligofectamin (trade name, manufactured by Invitrogen) in an amount of 4 μl/reaction, according to an Invitrogen's protocol attached to Oligofectamin (trade name). As a control, the cells were subjected to similar operations without adding the siRNA. The unspecific influence of the siRNA was evaluated using an siRNA to a BCR/ABL chimera mRNA.
Confirmation of RNA interference of the target gene was carried out by determining change in mRNA level by a real-time RT-PCR method as shown below.
Using Oligofectamin (trade name, manufactured by Invitrogen), each kind of cell was transfected with the synthesized siRNA. After 24 hours, whole RNA was extracted from the resulting cells with TRIzol™ reagent (manufactured by Invitrogen), and the resulting product was treated with DNaseI (manufactured by TAKARA BIO INC.). The transfection, the extraction of the whole RNA and the treatment with DNaseI were carried out according to a manufacturer's protocol of the reagent used.
The real-time PCR method was carried out using a Real Time One Step RNA PCR Kit (trade name, manufactured by TAKARA BIO INC.), 100 ng of the resulting RNA as a template and a pair of primers (each 20 pmol), that is, an oligonucleotide having the nucleotide sequence of SEQ ID NO: 13 and an oligonucleotide having the nucleotide sequence of SEQ ID NO: 14. In the real-time RT-PCR method, change in fluorescence based on SYBER Green I (manufactured by TAKARA BIO INC.) was determined with Light Cycler (trade name, manufactured by Roche). The RNA level was standardized by similarly determining GAPDH mRNA with primers set forth in SEQ ID NOs: 15 and 16.
The PCR conditions were as follows: after incubation was carried out at 95° C. for 30 seconds, the reaction was carried out in 40 cycles each consisting of the reaction at 95° C. for 1 second, then at 60° C. for 10 seconds, and at 72° C. for 30 seconds.
The inhibition percentage (%) of the relative mRNA expression level (Flt3 mRNA/GAPDH mRNA) changed by using the synthesized siRNA, as calculated assuming that the relative mRNA expression level (Flt3 mRNA/GAPDH mRNA) of the cells only subjected to each operation of the transfection without adding the synthesized siRNA was 100%, was shown in Table 1.

[5] = siRNA 10 nM, after 20 hours, n=3 mean, control = transfection without siRNA
[6] = MV4-11 (ITD mutation-highly expressing)

siRNA3: siRNA to juxtamembrane region (Flt3/JMD region) (target SEQ ID NO: 7); sense SEQ ID NO: 8, antisense SEQ ID NO: 9 (sense UAUGAAUAUGAUCUCAAAUTT; antisense AUUUGAGAUCAUAUUCAUATT; chemistry not given here)
Ratio of cell-growth activation defining RNA interference effect in HL60 as 1 ([1]; HL60, the reference itself): (1)
Relative growth ability (%) compared with the control ([1]; HL60, siRNA 10 nM, after 20 hours, n=3 mean, control = transfection without siRNA): 90.3%
Ratio of cell-growth activation defining RNA interference effect in HL60 as 1 [2]: (0.41)
Relative growth ability (%) compared with the control [2, 5]: 37.5%
Ratio of cell-growth activation defining RNA interference effect in HL60 as 1 [3]: (0.50)
Relative growth ability (%) compared with the control [3, 5]: 45.1%
Relative ratio of inhibition defining RNA interference effect in EoL1 as 1 ([4]; EoL1 (WT-highly expressing), the reference itself): (1)
inhibition percentage (%) of the relative mRNA expression level (Flt3 mRNA/GAPDH mRNA) ([4]; EoL1 (WT-highly expressing)): 63%
selective inhibition of Flt3 mRNA expression relative to the inhibition ratio in the Flt3 low expressing cells ([4]; Flt3 highly expressing cells vs Flt3 low expressing cells): ≥ 1.6 fold
inhibition of Flt3 mRNA expression relative to the cells without using an siRNA ([4]; Flt3 highly expressing cells, regardless of the presence or absence of ITD mutation): 65%
inhibition percentage (%) of the relative mRNA expression level (Flt3 mRNA/GAPDH mRNA) ([4]; HL60 (WT-low expressing)): 38%
Relative ratio of inhibition defining RNA interference effect in EoL1 as 1 [4, 6]: (1)
inhibition percentage (%) of the relative mRNA expression level (Flt3 mRNA/GAPDH mRNA) [4, 6]: 65%
